In the Deep4Chem optical property database:

Assay: photoluminescence quantum yield (fraction); solvent given as SMILES

Work on CC1=CC(C)=[N+]2C1=C(c1ccc(-c3ccc(O)cc3)s1)c1c(C)cc(C)n1[B-]2(F)F yielded a photoluminescence quantum yield (in Cc1ccccc1) of 0.069.
For N#CC(C#N)=Cc1ccc2c(c1)c1ccccc1n2-c1cccc2ccccc12, the photoluminescence quantum yield (in ClCCl) was 0.05.
In the case of C(=C\c1nc2ccccc2[nH]1)/c1ccc(-c2nc3c4cccnc4c4ncccc4c3[nH]2)cc1, the photoluminescence quantum yield (in C1CCOC1) is reported as 0.11, the photoluminescence quantum yield (in CC#N) is reported as 0.15 and the photoluminescence quantum yield (in CO) is reported as 0.09. The photoluminescence quantum yield (in ClCCl) was 0.07.
With CN(C)CCN(Cc1c2ccccc2cc2ccccc12)c1ccc([N+](=O)[O-])cc1[N+](=O)[O-] the photoluminescence quantum yield (in C1CCCCC1) was 0.0001, the photoluminescence quantum yield (in C1CCOC1) was 0.0004 and the photoluminescence quantum yield (in CC#N) was 0.0185. For the same compound, the photoluminescence quantum yield (in CC(C)=O) was 0.0043, the photoluminescence quantum yield (in CCO) was 0.0087 and the photoluminescence quantum yield (in CN(C)C=O) was 0.0293. The photoluminescence quantum yield (in CO) was 0.0093, the photoluminescence quantum yield (in CS(C)=O) was 0.0426 and the photoluminescence quantum yield (in ClC(Cl)Cl) was 0.0009. The photoluminescence quantum yield (in ClCCl) was 0.0057.
COc1ccc(C2=CC(c3cc(OC)cc(OC)c3)=[O+][B-](F)(F)O2)cc1 showed a photoluminescence quantum yield (in CC#N) of 0.02, a photoluminescence quantum yield (in CC(C)=O) of 0.04 and a photoluminescence quantum yield (in CCCCCC) of 0.25. The photoluminescence quantum yield (in Cc1ccccc1) was 0.19 and the photoluminescence quantum yield (in ClCCl) was 0.08.
In the case of CCOC(=O)c1cc(C(=O)OCC)c2c(C)ccc(O)c2n1, the photoluminescence quantum yield (in CCO) is reported as 0.26.
In the case of F[B-]1(F)n2c(Oc3ccccc3)c(Cl)c3c2C(=C2C(Br)=C(Cl)C(Oc4ccccc4)=[N+]21)Oc1ccccc1-3, the photoluminescence quantum yield (in ClCCl) is reported as 0.99.
In the case of CC(C)(C)/C=C/C1=[N+]2C(=C(c3c4ccccc4cc4ccccc34)c3ccc(/C=C/C(C)(C)C)n3[B-]2(F)F)C=C1, the photoluminescence quantum yield (in ClC(Cl)Cl) is reported as 0.58.
With CCOC(CN1C(=O)C2=C(c3cccs3)N(CC(OCC)OCC)C(=O)C2=C1c1cccs1)OCC the photoluminescence quantum yield (in ClC(Cl)Cl) was 0.41.
Compound c1ccc(-c2nc3c(c4c2-c2ccccc2CC4)-c2ccccc2CC3)cc1 has a photoluminescence quantum yield (in C1CCOC1) of 0.009, a photoluminescence quantum yield (in CC#N) of 0.001 and a photoluminescence quantum yield (in CCCCCC) of 0.001. The photoluminescence quantum yield (in CCOC(C)=O) was 0.03, the photoluminescence quantum yield (in CO) was 0.002 and the photoluminescence quantum yield (in CS(C)=O) was 0.003. The photoluminescence quantum yield (in Cc1ccccc1) was 0.002 and the photoluminescence quantum yield (in ClCCl) was 0.01.
For CN(C)c1ccc2c(-c3cc(N)ccc3C(=O)[O-])c3ccc(=[N+](C)C)cc-3oc2c1, the photoluminescence quantum yield (in CCO) was 0.016 and the photoluminescence quantum yield (in O) was 0.022.
Compound CC1(C)c2ccccc2-c2ccc(N3c4ccc(-c5ccc(/C=C6\C(=O)c7ccc(C(=O)O)cc7C6=O)s5)cc4C4CCCC43)cc21 (configuration not stated) has a photoluminescence quantum yield (in ClC(Cl)Cl) of 0.18.
c1ccc2c(c1)-c1ccccc1C21c2ccccc2N(c2ccc(-c3nc([C@]45CC6CC(C[C@@H](C6)C4)C5)nc([C@]45C[C@H]6C[C@@H](C[C@H](C6)C4)C5)n3)cc2)c2ccccc21 gave a photoluminescence quantum yield (in CC1(C)c2ccccc2N(c2cccc(N3c4ccccc4C(C)(C)c4ccccc43)c2)c2ccccc21) of 0.67, a photoluminescence quantum yield (in CC(C)(C)c1ccc(-n2c3ccc([Si](c4ccccc4)(c4ccccc4)c4ccccc4)cc3c3cc([Si](c4ccccc4)(c4ccccc4)c4ccccc4)ccc32)cc1) of 0.76 and a photoluminescence quantum yield (in Cc1cc(-n2c3ccccc3c3ccccc32)ccc1-c1ccc(-n2c3ccccc3c3ccccc32)cc1C) of 0.36. The photoluminescence quantum yield (in O=P(c1ccccc1)(c1ccccc1)c1ccc([Si](c2ccccc2)(c2ccccc2)c2ccccc2)cc1) was 0.84.
With COc1ccc(C2=C3C(C)=CC(C)=[N+]3[B-](F)(F)n3c(/C=C/c4ccc(N(C)C)cc4)cc(C)c32)cc1 the photoluminescence quantum yield (in C1CCCCC1) was 0.97, the photoluminescence quantum yield (in C1CCOC1) was 0.56 and the photoluminescence quantum yield (in C1COCCO1) was 0.77. The photoluminescence quantum yield (in CC1CCCCC1) was 0.86, the photoluminescence quantum yield (in CC#N) was 0.09 and the photoluminescence quantum yield (in CC(C)=O) was 0.27. For the same compound, the photoluminescence quantum yield (in CC(C)OC(C)C) was 0.87, the photoluminescence quantum yield (in CCC#N) was 0.19 and the photoluminescence quantum yield (in CCCC#N) was 0.27. For the same compound, the photoluminescence quantum yield (in CCCCO) was 0.59, the photoluminescence quantum yield (in CCCCOCCCC) was 0.91 and the photoluminescence quantum yield (in CCOC(C)=O) was 0.59. The photoluminescence quantum yield (in CCOCC) was 0.93, the photoluminescence quantum yield (in CN(C)C=O) was 0.08 and the photoluminescence quantum yield (in CO) was 0.16. The photoluminescence quantum yield (in CS(C)=O) was 0.056, the photoluminescence quantum yield (in Cc1ccccc1) was 0.85 and the photoluminescence quantum yield (in ClC(Cl)Cl) was 0.82.
For F[B-]1(F)n2c(c3ccccc3c2-c2ccccc2)C(c2ccccc2)=C2c3ccccc3C(c3ccccc3)=[N+]21, the photoluminescence quantum yield (in ClCCl) was 0.93.
CN1C(C(=O)Nc2ccccn2)=C(O)c2sccc2S1(=O)=O showed a photoluminescence quantum yield (in C1COCCO1) of 0.0191, a photoluminescence quantum yield (in CC#N) of 0.00752 and a photoluminescence quantum yield (in CCCCO) of 0.0169. It also gave a photoluminescence quantum yield (in CCCO) of 0.0108, a photoluminescence quantum yield (in CCO) of 0.00738 and a photoluminescence quantum yield (in CCOC(C)=O) of 0.0275. The photoluminescence quantum yield (in CO) was 0.00499.
Work on CC1=[N+]2C(=C(c3c4ccccc4c(-c4ccccc4)c4ccccc34)c3ccc(C)n3[B-]2(F)F)C=C1 yielded a photoluminescence quantum yield (in CC#N) of 0.004, a photoluminescence quantum yield (in CCCCCC) of 0.773 and a photoluminescence quantum yield (in CCO) of 0.006. It also gave a photoluminescence quantum yield (in CN(C)C=O) of 0.004, a photoluminescence quantum yield (in Cc1ccccc1) of 0.141 and a photoluminescence quantum yield (in ClCCl) of 0.007.
CC1(C)Nc2cc3nc4cc(Cl)c(Cl)cc4nc3cc2N1 showed a photoluminescence quantum yield (in CCO) of 0.42.
CC(=O)O[B-]1(OC(C)=O)OC(/C=C/c2ccc(C)cc2)=CC(/C=C/c2ccc(C)cc2)=[O+]1 gave a photoluminescence quantum yield (in C1CCOC1) of 0.75, a photoluminescence quantum yield (in CC#N) of 0.55 and a photoluminescence quantum yield (in CC(C)=O) of 0.58. For the same compound, the photoluminescence quantum yield (in CS(C)=O) was 0.51, the photoluminescence quantum yield (in Cc1ccccc1) was 0.88 and the photoluminescence quantum yield (in ClC(Cl)Cl) was 0.63. It also gave a photoluminescence quantum yield (in ClCCl) of 0.56.
For COc1ccc2c3ccc(OC)cc3n(-c3ccc(-c4nnc(-c5c(C)cc(C)cc5C)o4)cc3C)c2c1, the photoluminescence quantum yield (in Cc1ccccc1) was 0.06.
Work on CCCSC1=[N+]2C(=C(c3ccccc3)c3ccc(SCCC)n3[B-]2(F)F)C=C1 yielded a photoluminescence quantum yield (in CC#N) of 0.44, a photoluminescence quantum yield (in CCCCCC) of 0.34 and a photoluminescence quantum yield (in CCOC(C)=O) of 0.36. It also gave a photoluminescence quantum yield (in CO) of 0.42 and a photoluminescence quantum yield (in ClCCl) of 0.43.
Work on COc1ccc(C#Cc2c3ccccc3c(C#Cc3ccc(OC)cc3)c3cc4ccccc4cc23)cc1 yielded a photoluminescence quantum yield (in ClCCl) of 0.85.
For CN(C)C1=Nc2cccc3cccc1c23, the photoluminescence quantum yield (in CC#N) was 0.0066.
Work on Cc1cc(C)c(-c2cc(-c3c(C)cc(C)cc3C)c3ccc4c(-c5c(C)cc(C)cc5C)cc(-c5c(C)cc(C)cc5C)c5ccc2c3c54)c(C)c1 yielded a photoluminescence quantum yield (in ClCCl) of 0.28.
Compound O=C(c1ccccc1)c1cc2ccc1CCc1ccc(c(-c3ccc(N(c4ccccc4)c4ccccc4)cc3)c1)CC2 has a photoluminescence quantum yield (in c1cc(-n2c3ccccc3c3ccccc32)cc(-n2c3ccccc3c3ccccc32)c1) of 0.15.
Cc1cc2nc3c(=O)[nH]c(=O)n(C)c3nc2cc1C gave a photoluminescence quantum yield (in CC#N) of 0.027.
C(=C\c1ccc(-n2c3ccccc3c3ccccc32)cc1)/c1ccc(-c2ccc(/C=C/c3ccc(-n4c5ccccc5c5ccccc54)cc3)cc2)cc1 showed a photoluminescence quantum yield (in Cc1ccccc1) of 0.89 and a photoluminescence quantum yield (in c1ccc2c(c1)c1ccccc1n2-c1ccc(-c2ccc(-n3c4ccccc4c4ccccc43)cc2)cc1) of 0.98.
CN(C)c1ccc(/C=C/c2ccnc(/C=C/c3ccc(N(C)C)cc3)n2)cc1 showed a photoluminescence quantum yield (in ClCCl) of 0.04.
CC1(C)c2ccccc2N(c2ccc3c(c2)c2cc(N4c5ccccc5C(C)(C)c5ccccc54)ccc2c2nc(C#N)c(C#N)nc32)c2ccccc21 gave a photoluminescence quantum yield (in Cc1ccccc1) of 0.12 and a photoluminescence quantum yield (in O=P(c1ccccc1)(c1ccccc1)c1cccc(-c2cc(-n3c4ccccc4c4ccccc43)cc(-n3c4ccccc4c4ccccc43)c2)n1) of 0.33.
With CN(C)c1ccc(N2c3sc4ccccc4c3Sc3c2sc2ccccc32)cc1 the photoluminescence quantum yield (in ClCCl) was 0.19.
CN(C)c1ccc(C2=Nc3sc4ccccc4[n+]3[B-](F)(F)O2)cc1 showed a photoluminescence quantum yield (in C1CCOC1) of 0.78, a photoluminescence quantum yield (in CC#N) of 0.17 and a photoluminescence quantum yield (in CC(C)=O) of 0.31. It also gave a photoluminescence quantum yield (in Cc1ccccc1) of 0.84 and a photoluminescence quantum yield (in ClCCl) of 0.77.
For CCN(CC)c1ccc(-c2nc(Oc3ccc(-c4nc5ccccc5s4)cc3)nc(Oc3ccc(-c4nc5ccccc5s4)cc3)n2)cc1, the photoluminescence quantum yield (in CN(C)C=O) was 0.155.
For CCCCCCC(CCCCCC)N1C(=O)c2cccc3c(-c4cc(OC)c(OC)c(OC)c4)ccc(c23)C1=O, the photoluminescence quantum yield (in CCCCCC) was 0.41, the photoluminescence quantum yield (in CCCCCCCCCCCCCC) was 0.51 and the photoluminescence quantum yield (in CCCCCCCCCCCO) was 0.26. It also gave a photoluminescence quantum yield (in CCCCO) of 0.022, a photoluminescence quantum yield (in CN(C)C=O) of 0.0065 and a photoluminescence quantum yield (in Cc1ccccc1) of 0.71. It also gave a photoluminescence quantum yield (in ClC(Cl)Cl) of 0.65.
With CSc1sc(C(C)=O)c2nn[nH]c(=O)c12 the photoluminescence quantum yield (in C1CCOC1) was 0.015, the photoluminescence quantum yield (in CC#N) was 0.017 and the photoluminescence quantum yield (in CCO) was 0.0091. The photoluminescence quantum yield (in CN(C)C=O) was 0.0047, the photoluminescence quantum yield (in CO) was 0.0077 and the photoluminescence quantum yield (in CS(C)=O) was 0.0048.
CN(C)c1ccc(/C=C/c2ccc([N+](=O)[O-])c(O)c2)cc1 showed a photoluminescence quantum yield (in C1CCCCC1) of 0.11, a photoluminescence quantum yield (in C1COCCO1) of 0.02 and a photoluminescence quantum yield (in CCCCCCC) of 0.09. It also gave a photoluminescence quantum yield (in Cc1ccccc1) of 0.09.
Work on Cc1ccc(-c2cnc3ccc4ccccc4n23)cc1 yielded a photoluminescence quantum yield (in ClCCl) of 0.42.
For c1ccc(-c2ccc(-c3cc(-c4ccccn4)nc(-c4ccccn4)c3)cc2)cc1, the photoluminescence quantum yield (in ClCCl) was 0.18.
Compound CCN(CC)c1ccc2cc(-c3ccc(-c4ccc5ccc6c(-c7ccc(-c8cc9ccc(N(CC)CC)cc9oc8=O)cc7)ccc7ccc4c5c76)cc3)c(=O)oc2c1 has a photoluminescence quantum yield (in ClC(Cl)Cl) of 0.893.
Cc1ccc(-c2cc(-c3ccc(N(C)C)cc3)c3c(N)nc(N4CCCC4)c(C#N)c3n2)cc1 gave a photoluminescence quantum yield (in CC#N) of 0.095 and a photoluminescence quantum yield (in c1ccccc1) of 0.083.
Work on Cc1ccc(CN2/C(=C/C=C3\CCCC(/C=C/C4=[N+](Cc5ccc(C)cc5)c5ccccc5C4(C)C)=C3Cl)C(C)(C)c3ccccc32)cc1 yielded a photoluminescence quantum yield (in CCO) of 0.132.
CCN1\C(=C/C=C/C=C/C2=[N+](CC)c3ccc4cc(Br)ccc4c3C2(C)C)C(C)(C)c2c1ccc1cc(Br)ccc21 gave a photoluminescence quantum yield (in CS(C)=O) of 0.381.
Work on CCCCCCCCC1(CCCCCCCC)c2cc(-c3ccc(C(=O)OC)cc3)ccc2-c2ccc(-c3ccc(C(=O)OC)cc3)cc21 yielded a photoluminescence quantum yield (in ClC(Cl)Cl) of 0.94.
Work on CCCCC(CC)CN1C(=O)c2cc(Oc3ccc(C(C)(C)C)cc3)c3c4c(Cl)cc5c6c(cc(Cl)c(c7c(Oc8ccc(C(C)(C)C)cc8)cc(c2c37)C1=O)c64)C(=O)N(c1c(C(C)C)cccc1C(C)C)C5=O (configuration not stated) yielded a photoluminescence quantum yield (in Cc1ccccc1) of 0.72.
In the case of COc1cc(/C=C/C(=O)CC(=O)/C=C/c2ccc(O)c(OC)c2)ccc1O, the photoluminescence quantum yield (in C1CCCCC1) is reported as 0.014, the photoluminescence quantum yield (in CC#N) is reported as 0.075 and the photoluminescence quantum yield (in CN(C)C=O) is reported as 0.022. The photoluminescence quantum yield (in CO) was 0.017, the photoluminescence quantum yield (in CS(C)=O) was 0.024 and the photoluminescence quantum yield (in c1ccccc1) was 0.052.
In the case of CN(C)c1ccc2c(c1)C(C)(C)C1=CC(=[N+](C)C)C=CC1=C2C#Cc1ccccc1, the photoluminescence quantum yield (in CO) is reported as 0.148 and the photoluminescence quantum yield (in O) is reported as 0.047.
